{"source": "patent US9211278B2", "about": "“Composition containing arylnaphthalene lignan derivative for preventing and/or treating dementia” (KOREA INSTITUTE OF SCIENCE AND TECHNOLOGY, priority 2012, dated 2015)", "key": {"[1]": {"test_system": "PC12 cell treated with Aβ25-35", "test": "Protection against cellular toxicity induced by Aβ25-35", "assay_type": "cell-based", "settings": "30 uM Aβ25-35, 48 hrs", "method": "To identify the protecting effect against cellular toxicity induced by Aβ, PC12 cell was treated with Justicidin A and Aβ25-35 and measured cell viability. More particularly, 1.5×10^4 cells of PC12 were seeded to each well of 96-well plate, and incubated for 24 hrs. Then, the plate was treated with various concentrations of Justicidin A 30 min, treated 30 uM Aβ25-35, and incubated for 48 hrs. Cell viability was measured by Cell counting kit-8 to show the result FIG. 12b."}, "[2]": {"test_system": "HeLa cell line transfected with the amyloid precursor protein (APP)", "test": "MTT cell proliferation assay (cell death)", "assay_type": "cell-based", "settings": "5 μg/ml, 8 hours", "method": "To test the effect of Justicidin A and 5-methoxyJusticidin A on cell death, the MTT Cell Proliferation assay method (ATCC catalog #30-1010K, Manassas, USA) was used. Specifically, the HeLa cell line transfected with the amyloid precursor protein (APP) driven from human was treated with various concentrations of Justicidin A (S62-C1) or 5-methoxyJusticitdin A (S62-C2) for 8 hours, and the viable cells were quantified to show the result in FIG. 3."}, "APP endocytosis": {"test_system": "APP endocytosis", "test": "APP endocytosis rate (confocal microscopy, reversible biotinylation)", "assay_type": "cell-based, human", "method": "To test the endocytosis rate of App, 5×10^5 cells of HeLa cell line transfected with amyloid precursor protein (APP) as the substantially same method as Experimental Examples 6 and 7, seeded on poly-D-lysine coated cover glass and incubated for 24 hours. Then, 1 uM Justicidin A and APP antibody (1:100 diluted, SIG-39320, Covance) treated for 45 min at 4° C., washed out to remove free APP antibodies with culture fluid at three times. The cells were incubated at 37° C., starting endocytosis temperature, for 10, 30, and 60 min, and fixed by 4% paraformaldehyde for 15 min. Then, the cells were permeabilized by 0.1% triton X-100 for 5 min, and APP was marked by secondary fluorescent-labeled antibody (1:200 diluted, A11001, Invitrogen).\nThe change in the location of APP at various times was measured by confocal microscopy (LSM510, Zeiss, Germany) at 488 nm. […] (0 min). The endocytosis started at 37° C. […]\nAPP fluorescent intensity remained in plasma membrane compared to APP fluorescent intensity in plasma membrane at 0 min was measured.\nFor quantitative measurement of APP endocytosis rate, a reversible biotinylation method was used. […]\nThe result of western blotting was measured by band intensity to show the amount of intracellular APP (FIG. 10b; % internalization) with respect to total maAPP on the cell membrane (FIG. 10a)."}, "Aβ42": {"target": "T1, Aβ42 (Homo sapiens, UniProt P05067)", "T1 construct": "Aβ42 of 42 amino acids", "T1 sequence (P05067 672-713 limits assumed)": "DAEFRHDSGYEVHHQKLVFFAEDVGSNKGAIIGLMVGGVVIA", "test": "Aβ fibril formation, Thioflavin T (ThT) fluorescence assay", "assay_type": "biochemical", "method": "Fibril formation by concentrated Aβ is Alzheimer's representative symptom and has been focused on recently. The concentrated Aβ was measured by Thioflavin T (ThT) fluorescence assay, as chemical process was artificially generated.\nFor formation of Aβ fibril, Aβ42 was melt in 1,1,1,3,3,3-hexafluoro-2-propanol (HFIP) up to 1 mg/ml, then injected to 96-well plate, the concentration of Aβ42 was 10 uM each well, HFIP was evaporated shortly before the beginning of the experiment. Various concentrations of Justicidin A and a certain amount of 5 uM ThT were added, and Fluorescence intensity was measured at various times by Tecan infinite M1000 microplate reader (Tecan, Switzerland)."}, "[3]": {"test_system": "APP targeted to plasma membrane (maAPP)", "test": "Targeting of mature APP (maAPP) to plasma membrane, biotinylation method", "assay_type": "cell-based, human", "method": "It is reported that APP made in ER, then passed through Golgi, targeted to plasma membrane, in the maAPP form. APP hydrolysis was performed by alpha-secretase, sAPPα secretion was increased, and Aβ secretion, made by beta secretase, was decreased. Relative amount of maAPP increased by Justicidin A, amount of APP targeted to plasma membrane was measured by biotinylation method.\nHela cell line, transfected with the amyloid precursor protein (APP), was incubated in DMEM (Cat. #11995, Gibco, USA). The cell line was received from Prof. Tae-Wan Kim at Department of Pathology, Columbia University Medical Center, New York, N.Y. 10032, USA. 1.5×10^6 cells seeded in 60 mm dish, incubated for 24 hours. […] Avidin (S 1638, Sigma), specifically interacted to biotin, added to pellet (30 ul, 4° C., incubated for 30 min) for precipitation biotinylated protein, and precipitated protein was performed electrophoresis, then measured change of APP protein, exposed protein of outside of cell, by western blotting with APP antibody (1:2000 diluted, A8717, Sigma).\nWhen Justicidin A was treated for 1 hour, the biotinylated APP was increased as the concentration increased 0.03, 0.1, and 0.25 uM, the and the molecular weight was the same as O-glycosylated APP (maAPP) (FIG. 7a). The result of western blotting was measured by band intensity to show the result in FIG. 7b. […]"}}}
{"smiles": "COc1cc2c(OC)c3c(c(-c4ccc5c(c4)OCO5)c2cc1OC)C(=O)OC3", "note": "[Justicidin A]", "values": [{"measurement": "toxicity induced by Aβ25-35", "setting": "[1]", "value": "reduced the toxicity induced by Aβ25-35 in a concentration-dependent manner"}, {"measurement": "cell lines died", "setting": "[2]", "value": "≤ 20", "unit": "%"}, {"measurement": "APP endocytosis (reversible biotinylation)", "setting": "APP endocytosis; 1 uM pre-treated, 5, 10, 30 min at 37° C.", "value": "showed reduced endocytosis of APP"}, {"measurement": "APP endocytosis (APP fluorescent intensity remaining in plasma membrane)", "setting": "APP endocytosis; 1 uM pre-treatment, confocal microscopy, 10, 30, 60 min at 37° C.", "value": "APP endocytosis was delayed"}, {"measurement": "inhibition at 5 µM", "setting": "Aβ42; 5 uM, read-out: inhibition of formation of Aβ fibril compared to the control group", "value": 52, "unit": "%"}, {"measurement": "inhibition of formation of Aβ fibril", "setting": "Aβ42; various concentrations, up to 36 hrs", "value": "inhibited the formation of Aβ fibril in a concentration-dependent manner"}, {"measurement": "amount of maAPP in the cell membrane, by treatment time", "setting": "[3]; 0.1 uM, 10 min to 240 min", "value": "the amount of maAPP in the cell membrane as the treatment time increased"}, {"measurement": "amount of maAPP (biotinylated APP) in plasma membrane, by concentration", "setting": "[3]; 0.03, 0.1, and 0.25 uM, 1 hour", "value": "amount of maAPP increased in plasma membrane in a concentration-dependent manner"}]}
